One test deals with PDE4 (Homo sapiens, UniProt Q08499). The test can be described thus: In-vitro assay for PDE4 enzymes, real-time enzyme-coupled spectrophotometric assay (Table 9). It counts as biochemical.
For a further test, the target named is PDE4B (Homo sapiens, UniProt Q07343). Kind of test: In-vitro assay for PDE4 enzymes, real-time enzyme-coupled spectrophotometric assay, PDE4B Activity (Table 10). The class given is biochemical.
[1] abbreviates: human PDE4D, activity class, Table 9, read-out: hPDE4D.
Setting [2] is: human PDE4B (hPDE4B), enzyme-coupled spectrophotometric assay, read-out: PDE4B Activity, hPDE4B.

45 compounds from US8791267B2, “Biaryl PDE4 inhibitors for treating inflammatory, cardiovascular and CNS disorders” (Decode Genetics EHF, priority 2007, dated 2014) can be followed below.

Where a name gives a salt, the structure may show the parent alone. Read-outs that look alike come from different tables or passages of the source.

PDE4, sequence (Q08499 whole entry): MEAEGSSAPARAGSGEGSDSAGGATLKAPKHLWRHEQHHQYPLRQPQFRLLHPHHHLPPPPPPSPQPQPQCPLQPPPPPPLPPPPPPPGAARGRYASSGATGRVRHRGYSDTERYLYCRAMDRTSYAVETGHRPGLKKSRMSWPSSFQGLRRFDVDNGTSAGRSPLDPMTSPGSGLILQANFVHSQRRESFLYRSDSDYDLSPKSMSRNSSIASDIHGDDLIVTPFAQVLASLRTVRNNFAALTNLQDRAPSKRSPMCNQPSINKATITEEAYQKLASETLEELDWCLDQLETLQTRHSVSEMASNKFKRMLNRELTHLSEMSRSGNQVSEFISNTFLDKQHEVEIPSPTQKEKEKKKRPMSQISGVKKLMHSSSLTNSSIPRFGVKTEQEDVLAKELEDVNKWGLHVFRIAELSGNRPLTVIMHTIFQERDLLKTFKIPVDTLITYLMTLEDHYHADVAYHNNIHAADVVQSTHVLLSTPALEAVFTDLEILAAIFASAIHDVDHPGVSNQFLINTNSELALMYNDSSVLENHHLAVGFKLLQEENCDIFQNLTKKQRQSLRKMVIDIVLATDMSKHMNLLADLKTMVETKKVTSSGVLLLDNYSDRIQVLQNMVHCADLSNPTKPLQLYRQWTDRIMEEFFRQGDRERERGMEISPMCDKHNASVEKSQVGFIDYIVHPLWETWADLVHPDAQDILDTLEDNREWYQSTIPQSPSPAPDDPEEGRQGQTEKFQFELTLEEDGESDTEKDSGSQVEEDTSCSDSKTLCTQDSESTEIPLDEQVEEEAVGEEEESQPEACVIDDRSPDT
PDE4B, sequence (Q07343 whole entry): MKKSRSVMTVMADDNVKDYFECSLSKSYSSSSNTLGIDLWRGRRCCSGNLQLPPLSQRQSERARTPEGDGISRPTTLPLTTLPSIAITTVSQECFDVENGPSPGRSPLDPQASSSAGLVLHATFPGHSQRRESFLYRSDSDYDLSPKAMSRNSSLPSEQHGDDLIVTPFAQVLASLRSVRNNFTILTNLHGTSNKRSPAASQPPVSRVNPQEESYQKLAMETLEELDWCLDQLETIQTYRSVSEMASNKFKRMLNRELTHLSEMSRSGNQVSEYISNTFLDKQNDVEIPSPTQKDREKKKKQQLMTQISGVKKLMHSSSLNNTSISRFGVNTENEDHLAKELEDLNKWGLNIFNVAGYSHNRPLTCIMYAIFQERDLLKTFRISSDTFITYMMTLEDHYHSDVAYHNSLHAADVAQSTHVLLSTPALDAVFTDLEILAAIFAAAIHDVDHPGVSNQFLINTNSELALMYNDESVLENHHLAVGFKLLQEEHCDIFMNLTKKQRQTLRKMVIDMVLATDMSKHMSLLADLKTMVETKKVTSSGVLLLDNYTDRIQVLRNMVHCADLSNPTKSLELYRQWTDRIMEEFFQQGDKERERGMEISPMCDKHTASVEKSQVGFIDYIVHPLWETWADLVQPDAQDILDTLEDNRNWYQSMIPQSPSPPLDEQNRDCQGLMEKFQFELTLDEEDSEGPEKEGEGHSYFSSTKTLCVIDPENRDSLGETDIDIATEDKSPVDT

With `COc1ccc(C(C)(O)c2ccc(NC(C)=O)cc2)c(F)c1-c1cccc(Cl)c1` (racemic) [P-530, N-{4-[1-(3′-Chloro-2-fluoro-6-methoxy-biphenyl-3-yl)-1-hydroxy-ethyl]-phenyl}-acetamide], the figures for the IC50 at PDE4 (setting [1]) and at PDE4B (setting [2]) were < 5 µM and 21 to 40 µM, respectively.

Regarding `COc1ccc([C@](C)(O)c2ccc(NC(C)=O)cc2)c(F)c1-c1cccc(Cl)c1` (single isomer, unassigned) [P-560], the IC50 on PDE4 (setting [1]) and at PDE4B (setting [2]) was 5 to 20 µM throughout.

Regarding `CNC(=O)Cc1ccc(OC)c(-c2cccc([N+](=O)[O-])c2)c1` [Cmpd P-027], on PDE4B (setting [2]), the IC50 fell in the range of 5 to 20 µM.

With `COc1ccc(CO)c(O)c1-c1cccc([N+](=O)[O-])c1` [Cmpd P-149], the IC50 on PDE4B (setting [2]) lay within 5 to 20 µM.

`COc1ccc(Cc2ccc(F)cc2)cc1-c1cccc([N+](=O)[O-])c1` [P-001, 5-(4-Fluoro-benzyl)-2-methoxy-3′-nitro-biphenyl]: the IC50 at PDE4 (setting [1]) and at PDE4B (setting [2]) was < 5 µM each time.

Take `COC(=O)c1cccc(-c2cc(Cc3ccc(F)cc3)ccc2OC)c1` [P-002]: the IC50 on PDE4 (setting [1]) and on PDE4B (setting [2]) was < 5 µM each time.

As to `COc1ccc(Cc2ccc(F)cc2)cc1-c1ccc2nonc2c1` [P-004, 5-[5-(4-Fluoro-benzyl)-2-methoxy-phenyl]-benzo[1,2,5]oxadiazole], the figures for the IC50 on PDE4 (setting [1]) and on PDE4B (setting [2]) were < 5 µM and 5 to 20 µM, respectively.

Take `COc1ccc(Cn2ccnc2)cc1-c1ccc2nonc2c1` [P-006, 5-(5-Imidazol-1-ylmethyl-2-methoxy-phenyl)-benzo[1,2,5]oxadiazole]: the IC50 on PDE4 (setting [1]) and at PDE4B (setting [2]) was < 5 µM in each case.

`COc1ccc(Cn2nnc3ccccc32)cc1-c1cccc([N+](=O)[O-])c1` [P-007, 1-(6-Methoxy-3′-nitro-biphenyl-3-ylmethyl)-1H-benzotriazole]: the IC50 on PDE4 (setting [1]) was < 5 µM; at PDE4B (setting [2]) it was 5 to 20 µM.

In the case of `COc1ccc(Cc2ccncc2)cc1-c1cccc([N+](=O)[O-])c1` [P-008], the IC50 at PDE4 (setting [1]) and at PDE4B (setting [2]) was < 5 µM in each case.

Regarding `COc1ccc(Cc2ccc(=O)[nH]n2)cc1-c1cccc([N+](=O)[O-])c1` [P-009, 6-(6-Methoxy-3′-nitro-biphenyl-3-ylmethyl)-2H-pyridazin-3-one], the IC50 on PDE4 (setting [1]) and on PDE4B (setting [2]) was < 5 µM throughout.

As to `COc1ccc(Cn2ccc3ccccc32)cc1-c1cccc([N+](=O)[O-])c1` [P-010, 1-(6-Methoxy-3′-nitro-biphenyl-3-ylmethyl)-1H-indole], the IC50 at PDE4 (setting [1]) and at PDE4B (setting [2]) was < 5 µM each time.

Regarding `COc1ccc(Cc2ccncc2)cc1-c1ccc2nonc2c1` [P-011], the IC50 on PDE4 (setting [1]) and on PDE4B (setting [2]) was < 5 µM in each case.

With `COc1ccc(Cc2ccc(=O)[nH]n2)cc1-c1ccc2nonc2c1` [P-012, 6-(3-Benzo[1,2,5]oxadiazol-5-yl-4-methoxy-benzyl)-2H-pyridazin-3-one], the IC50 at PDE4 (setting [1]) and at PDE4B (setting [2]) was 5 to 20 µM throughout.

On to `COc1ccc(Cn2cnc3ccccc32)cc1-c1ccc2nonc2c1` [P-014, 5-(5-Benzoimidazol-1-ylmethyl-2-methoxy-phenyl)-benzo[1,2,5]oxadiazole], for which the IC50 at PDE4 (setting [1]) and on PDE4B (setting [2]) was 5 to 20 µM in each case.

As for `COc1ccc(Oc2ccc(=O)[nH]n2)cc1-c1cccc([N+](=O)[O-])c1` [P-015, 6-(6-Methoxy-3′-nitro-biphenyl-3-yloxy)-2H-pyridazin-3-one], the IC50 at PDE4 (setting [1]) is < 5 µM; at PDE4B (setting [2]), 21 to 40 µM.

Turning to `COc1ccc(Cc2ccncc2)c(O)c1-c1cccc([N+](=O)[O-])c1` [P-017, 6-methoxy-3′-nitro-3-pyridin-4-ylmethyl-biphenyl-2-ol], the IC50 on PDE4 (setting [1]) and at PDE4B (setting [2]) was < 5 µM each time.

As for `COc1ccc(Cc2ccncc2)nc1-c1cccc([N+](=O)[O-])c1` [P-019, 3-methoxy-2-(3-nitro-phenyl)-6-pyridin-4-ylmethyl-pyridine], the IC50 on PDE4B (setting [2]) was < 5 µM.

Consider `NC(=O)Oc1ccc(Cc2ccc(=O)[nH]n2)cc1-c1cccc([N+](=O)[O-])c1` [P-020, Carbamic acid 3′-nitro-5-(6-oxo-1,6-dihydro-pyridazin-3-ylmethyl)-biphenyl-2-yl ester], for which the IC50 lay within 5 to 20 µM against PDE4 and 21 to 40 µM at PDE4B.

In the case of `COc1ccc(Cc2ccc3c(c2)OCO3)nc1-c1cccc([N+](=O)[O-])c1` [P-021, 6-benzo[1,3]dioxol-5-ylmethyl-3-methoxy-2-(3-nitro-phenyl)-pyridine], the IC50 is < 5 µM on PDE4 (setting [1]) and 5 to 20 µM at PDE4B (setting [2]).

Consider `COC(=O)c1cccc(-c2cc(Cn3cncn3)ccc2OC)c1` [P-022, 2′-Methoxy-5′-[1,2,4]triazol-1-ylmethyl-biphenyl-3-carboxylic acid methyl ester], for which the IC50 at PDE4 (setting [1]) is < 5 µM; on PDE4B (setting [2]) it was 5 to 20 µM.

Consider `COc1ccc(CN2CCCC2=O)nc1-c1cccc([N+](=O)[O-])c1` [P-031, 1-[5-methoxy-6-(3-nitro-phenyl)-pyridin-2-ylmethyl]-pyrrolidin-2-one], for which, at PDE4B (setting [2]), the IC50 is 21 to 40 µM.

As for `COc1ccc(CN2C[C@@H](OC(N)=O)CC2=O)cc1-c1cccc([N+](=O)[O-])c1` [P-253, Carbamic acid (S)-1-(6-methoxy-3′-nitro-biphenyl-3-ylmethyl)-5-oxo-pyrrolidin-3-yl ester], on PDE4B (setting [2]), the IC50 lay in the range of 21 to 40 µM.

For `COc1ccc(Cc2cc(N)cc(O)c2)c(F)c1-c1cccc(Cl)c1` [P-324, 3-Amino-5-(3′-chloro-2-fluoro-6-methoxy-biphenyl-3-ylmethyl)-phenol], the IC50 at PDE4B (setting [2]) lay within 21 to 40 µM.

For `COc1ccc(Cc2ccc(N3CCOCC3)nc2)cc1-c1cccc(Cl)c1` [P-572, 4-[5-(3′-chloro-6-methoxy-biphenyl-3-ylmethyl)-pyridin-2-yl]-morpholine], the IC50 on PDE4 (setting [1]) was < 5 µM.

`COc1ccc(COc2ccc(Br)cn2)c(F)c1-c1cccc(Cl)c1` [P-574]: the IC50 on PDE4 (setting [1]) was < 5 µM.

Take `COc1ccc(Cc2ccc(N3[C@@H](C)CC[C@@H]3C)nc2)c(F)c1-c1cccc(Cl)c1` [P-577, 5-(3′-Chloro-2-fluoro-6-methoxy-biphenyl-3-ylmethyl)-2-((2S,5S)-2,5-dimethyl-pyrrolidin-1-yl)-pyridine]: the IC50 on PDE4 (setting [1]) is < 5 µM.

`COc1ccc(C(=O)c2ccc(N)cc2)cc1-c1ccc(F)c(F)c1` [P-580]: the IC50 on PDE4 (setting [1]) was < 5 µM.

As to `COc1ccc(Cc2ccc(N3CCC[C@H]3C(C)(C)O)nc2)c(F)c1-c1cccc(Cl)c1` [P-581, 2-{(S)-1-[5-(3′-chloro-2-fluoro-6-methoxy-biphenyl-3-ylmethyl)-pyridin-2-yl]-pyrrolidin-2-yl}-propan-2-ol], the IC50 on PDE4 (setting [1]) is < 5 µM.

Take `[2H]C(O)(c1ccc(NC(N)=O)cc1)c1ccc(OC)c(-c2cccc(Cl)c2)c1` (stereo not drawn) [P-584]: at PDE4 (setting [1]), the IC50 lay within 5 to 20 µM.

As for `COc1ccc(COc2ccc(N3CCC3)nc2)c(F)c1-c1cccc(Cl)c1` [P-586], the IC50 on PDE4 (setting [1]) is < 5 µM.

In the case of `COc1ccc(COc2ccc(NC(N)=O)cc2)c(F)c1-c1cccc(Cl)c1` [P-589], the IC50 at PDE4 (setting [1]) is < 5 µM.

As for `COc1ccc(Cc2ccc(C(C)(C)N)nc2)c(F)c1-c1cccc(Cl)c1` [P-595, 1-[5-(3′-Chloro-2-fluoro-6-methoxy-biphenyl-3-ylmethyl)-pyridin-2-yl]-1-methyl-ethylamine], the IC50 at PDE4 (setting [1]) was < 5 µM.

On to `COc1ccc(Cc2ccc(N3CCC(O)C3)nc2)c(F)c1-c1cccc(Cl)c1` (stereo not drawn) [P-601, 1-[5-(3′-chloro-2-fluoro-6-methoxy-biphenyl-3-ylmethyl)-pyridin-2-yl]-pyrrolidin-3-ol], for which the IC50 at PDE4 (setting [1]) was < 5 µM.

`COc1ccc(Cc2ccc(N3CCC(O)C3)nc2)cc1-c1cccc(Cl)c1` (stereo not drawn) [P-602, 1-[5-(3′-chloro-6-methoxy-biphenyl-3-ylmethyl)-pyridin-2-yl]-pyrrolidin-3-ol]: the IC50 on PDE4 (setting [1]) is < 5 µM.

On to `COc1ccc(COc2ccnc(N3CCCC3)c2)cc1-c1cccc(Cl)c1` [P-607], for which the IC50 on PDE4 (setting [1]) is < 5 µM.

Regarding `COc1ccc(COc2ccnc(N3CCCC3)c2)c(F)c1-c1cccc(Cl)c1` [P-608], the IC50 on PDE4 (setting [1]) is < 5 µM.

Turning to `COc1ccc(Cc2ccc(C(C)N3CCC3)nc2)cc1-c1cccc(Cl)c1` (stereo not drawn) [P-609, 2-(1-azetidin-1-yl-ethyl)-5-(3′-chloro-6-methoxy-biphenyl-3-ylmethyl)-pyridine], the IC50 at PDE4 (setting [1]) is < 5 µM.

On to `COc1ccc(Cc2ccc(C(C)NC(N)=O)nc2)c(F)c1-c1cccc(Cl)c1` (stereo not drawn) [P-613, {1-[5-(3′-Chloro-2-fluoro-6-methoxy-biphenyl-3-ylmethyl)-pyridin-2-yl]-ethyl}-urea hydrochloride], for which the IC50 on PDE4 (setting [1]) is < 5 µM.

In the case of `FC(F)Oc1ccc(Cc2ccc(N3CCC3)nc2)cc1-c1cccc(Cl)c1` [P-614, 2-Azetidin-1-yl-5-(3′-chloro-6-difluoromethoxy-biphenyl-3-ylmethyl)-pyridine], the IC50 on PDE4 (setting [1]) is < 5 µM.

`COc1ccc(Cc2ccc(N3CC[C@H]3C(N)=O)nc2)c(F)c1-c1cccc(Cl)c1` [P-615, (S)-1-[5-(3′-chloro-2-fluoro-6methoxy-biphenyl-3-ylmethyl)-pyridin-2-yl]-azetidine-2-carboxylic acid amide]: the IC50 at PDE4 (setting [1]) is < 5 µM.

On to `NC(=O)Nc1ccc(Cc2ccc(OC(F)F)c(-c3cccc(Cl)c3)c2)cn1` [P-616, [5-(3′-Chloro-6-difluoromethoxy-biphenyl-3-ylmethyl)-pyridin-2-yl]-urea], for which the IC50 on PDE4 (setting [1]) was < 5 µM.

Regarding `COc1ccc(Cc2ccc(N3CC[C@@H]3C(N)=O)nc2)c(F)c1-c1cccc(Cl)c1` [P-617, (R)-1-[5-(3′-chloro-2-fluoro-6methoxy-biphenyl-3-ylmethyl)-pyridin-2-yl]-azetidine-2-carboxylic acid amide], the IC50 at PDE4 (setting [1]) is < 5 µM.

On to `CN(C)CC(=O)Nc1ccc(Cc2ccc(OC(F)F)c(-c3cccc(Cl)c3)c2)cn1` [P-618, N-[5-(3′-Chloro-6-difluoromethoxy-biphenyl-3-ylmethyl)-pyridin-2-yl]-2-dimethylamino-acetamide hydrochloride], for which the IC50 on PDE4 (setting [1]) is < 5 µM.

As to `COc1ccc(Cc2ccc(N(C)CC(N)=O)nc2)c(F)c1-c1cccc(Cl)c1` [P-622, 2-{[5-(3′-Chloro-2-fluoro-6-methoxy-biphenyl-3-ylmethyl)-pyridin-2-yl]-methyl-amino}-acetamide], at PDE4 (setting [1]), the IC50 was < 5 µM.
